pEC50: −log10 of the molar value. Marks after values point to notes of the source that are not given here.
Key:
[1] = biological target: T1, rhodopsin (isorhodopsin) dimerization (Homo sapiens, UniProt P08100); experiment: rhodopsin β-gal fragment complementation assay in U2OS opsin-EA/opsin-PK cells; type: cell-based; parameters: expressed in transfected cells; details: for pEC50: U2OS opsin-EA/PK cells regenerated with 9-cis-retinal, triplicates, read from Fig. 3A,D
Excerpt: (§1) To identify small molecules that target rhodopsin dimerization, a cell-based high-throughput screening (HTS) assay was used to screen a diverse library of 50,000 compounds from Life Chemicals. The human osteosarcoma (U2OS) stable cell line was used, which expresses opsin fused with complimentary subunits of β-galactosidase (β-gal), namely, the enzyme acceptor large β-gal subunit (EA) and the enzyme donor, small subunit of β-gal (PK). Upon rhodopsin self-association in vitro, a competent β-gal was formed and chemiluminescent signal was generated in the presence of β-gal substrate (Fig. 1A). For further validation, the β-gal activity assay was used to counter-screen and rule out false positives, affecting the activity of β-gal without affecting rhodopsin (Fig. 1B) ([34]). In an orthogonal assay, rhodopsin dimerization was assessed using a bioluminescence resonance energy transfer (BRET) assay with human embryonic kidney 293 cells expressing opsin fused with Renilla luciferase and opsin fused with Venus (Fig. 1C) ([35], [36]). To form functional visual pigment, opsin-fused proteins were regenerated with 9-cis-retinal to form so-called isorhodopsin ([37]). We chose 9-cis-retinal over photoreceptor-endogenous 11-cis-retinal because of its availability and the prohibitive cost for HTS assays with the native chromophore. Rhodopsin and isorhodopsin have similar biochemical and spectral properties (see ([38])).
All 50,000 compounds were screened, using the β-gal complementation assay at a final concentration of 60 μM with a Z′ factor of 0.75 ± 0.01 and a signal-to-background (S/B) ratio of 123 ± 14.4 (Fig. 2A) ([39]). The activity scores were calculated according to the following equation: (RLU(compound)−RLU(positivecontrol))/(RLU(negativecontrol)−RLU(positivecontrol))×100.
The positive control comprised U2OS cells transfected with both opsin-EA and opsin-PK, mimicking dimer formation (with a 0% score value), and the negative control comprised U2OS cells transfected with opsin-EA only, mimicking disrupted dimer formation (with a 100% score value).
In this study, cultured U2OS opsin-EA and opsin-PK cells were diluted to 2 × 10^5 cells/ml in the culture medium containing 10% fetal bovine serum (Thermo Fisher Scientific) and 1% penicillin-streptomycin 10,000 U/ml (Thermo Fisher Scientific). Cell diluent of 20 μl/well was dispensed into a white ViewPlate-384 (PerkinElmer) using the EL406 plate dispenser (BioTek). As a control, we used U2OS opsin-EA–only expressing cells as a positive control for dimerization disruption generating a minimal luminescence signal, as previously described ([41]). The plates were cultured overnight at 37 °C in 5% CO2, and the next day, under a dim red light, cells were treated with 5 μl/well of 9-cis-retinal (Sigma-Aldrich) at 7.5 μM final concentration. Plates were covered with aluminum foil and cultured overnight at 37 °C in 5% CO2. Next, cells were treated with each of the 50,000 library compounds (Life Chemicals Inc) at a final concentration of 57.6 μM, using a JANUS automated workstation (PerkinElmer), followed by incubation overnight at 37 °C, covered with aluminum foil. The next day, cells were treated with Galacton-Star chemiluminescent substrate (23 μl/well; Thermo Fisher Scientific). The plates were covered with foil and incubated at 20 °C for 2 h, followed by luminescence reading with the EnSpire multimode plate reader (PerkinElmer). Measurements were evaluated with the lowest value being defined as −50% (dimer enhancers) and the highest value as 100% (dimer disrupters) in the compound dataset. All experiments were done under red-light conditions. Identified compounds were retested in triplicates ranging from 180 μM down to 2.4 nM concentrations.

[2] = biological target: T1, rhodopsin (isorhodopsin) dimerization; experiment: rhodopsin dimerization BRET assay in HEK293 opsin-Rluc/opsin-Venus cells; type: cell-based; parameters: expressed in transfected cells; host or cells: HEK293 (human embryonic kidney 293) opsin-Rluc / opsin-Venus cell lines; details: for pEC50: HEK293 opsin-Rluc/opsin-Venus cells regenerated with 9-cis-retinal, triplicates, read from Fig. 3B,E
Excerpt: as §1
Identified hits from the β-gal complementation assay were subjected to the previously developed BRET assay, using human embryonic kidney 293 opsin–Renilla luciferase and opsin-Venus cell lines ([37]). Cultured cells were diluted to 2 × 10^5 cells/ml in the medium containing 10% fetal bovine serum (Thermo Fisher Scientific) and 1% penicillin-streptomycin (10,000 U/ml; Thermo Fisher Scientific), and 20 μl/well of the cell diluent was dispensed into a white ViewPlate-384 (PerkinElmer). Cells were cultured overnight at 37 °C in 5% CO2, and under a dim red light, cells were treated with 9-cis-retinal at 7.5 μM final concentration. The next day, cells were treated with the identified hit compounds from the β-gal complementation assay at 180 μM down to 2.4 nM concentrations, and 1 μM final concentration of TM5 peptide ([…]-NH2; EZBiolab) serving as the control. On the following day, the culture medium was aspirated and replaced with 90 μl/well of PBS containing pivaloyloxymethyl acetoxycoelenterazine h (Dalton Research Molecules) at 600 μM concentration followed by incubation at 20 °C for 40 min ([35]). Dual luminescence readings at 480 and 530 nm were performed using a SpectraMax L plate reader with the BRET1 filter set (Molecular Devices).

bovine rhodopsin = biological target: T2, bovine rhodopsin (Bos taurus, UniProt P02699); experiment: rhodopsin Meta II decay assay (Trp265 intrinsic fluorescence); details: 100 μM compound; for Meta II decay rate (slope of intrinsic fluorescence over 150 s) relative to DMSO control: bleached rhodopsin, p < 0.0001
T2 construct: The washed ROS with isotonic and hypotonic buffers was used as described above; from tissue; host or cells: bovine rod outer segments (ROS)
Description: However, oligomerization of isorhodopsin could affect the chromophore release from opsin. The chromophore release can be measured sensitively by the light-induced increase in intrinsic fluorescence of the Trp^265 residue that occurs upon release of the chromophore after illumination ([43]).
The washed ROS with isotonic and hypotonic buffers was used as described above. The solubilized rhodopsin at 1.05 mg/ml in 20 mM 1,3-bis(tris(hydroxymethyl)methylamino) propane, pH 6.9, 100 mM NaCl, and 1 mM LMNG buffer was incubated for 5 min at 20 °C with 0.7 μl of 100 mM stock solutions of the nine identified hit compounds (100 μM final concentration) in DMSO and centrifuged at 1000g for an additional 5 min. Next, photobleaching was carried out with a 150-W fiber light delivered through a 480 to 520 nm band pass filter (Chroma Technology) for 10 s. Samples were subjected to fluorescence measurements acquired through 150 s in triplicate. The results were analyzed with an L55 luminescence spectrophotometer (PerkinElmer) operating at excitation and emission wavelengths of 300 nm and 335 nm, respectively.

[3] = test system: rod photoreceptors of isolated mouse retinas; experiment: ex vivo ERG of isolated mouse retinas (rod light responses); type: cell-based, mouse (C57BL/6J); details: 250 μM compound
Excerpt: We determined the impact of compound #7 (representative disrupter of rhodopsin dimerization) and compound #1 (representative enhancer) on the sensitivity and kinetics of rod light responses, using ex vivo electroretinogram (ERG) analysis of isolated mouse retinas (Experimental procedures). This technique allows robust recordings from intact retinas and is well suited for quantitative investigation of mouse phototransduction ([48], [49], [50], [51], [52], [53]).
Ex vivo ERG recordings were conducted with isolated retinas of C57Bl/6J mice, as described ([41], [62], [63]). Mice were dark-adapted overnight and euthanized by CO2 asphyxiation, and whole retinas were dissected under dim red light. Before recordings, retinas were incubated for 5 h in Ames’ medium (Sigma-Aldrich) inside a light-tight box that was supplied with humidified 95% O2/5% CO2. For control retinas, 0.1% DMSO was added to the incubation medium, and for others, the incubation medium contained either 250 μM F2502-0030 (compound #1) or F5897-0190 (compound #7). These compounds were first dissolved in DMSO at 250 mM concentration, and 0.1% of this stock solution was added to the incubation medium (Ames’ medium). Stock solution was stored at −20 °C and used within a week. After incubation, retinas were placed on the ex vivo ERG specimen holder and perfused with Ames’ medium (saturated with 95% O2/5% CO2) at 1.5 ml/min at 35 °C. Ames’ medium was supplemented with 100 μM BaCl2 and 40 μM DL-AP4 (Tocris Bioscience) to isolate the photoreceptor component of the ERG signal. Responses were recorded to 5 ms flashes of light (630 nm) ranging from 276 to 308,534 photons μm^−2, corresponding to 1 to 1100 photons μm^−2 at 500 nm ([64]). Sensitivity of rod photoreceptors was determined in three ways: (1) sF = peak amplitude of dim flash response divided by flash energy (1 photon μm^−2); (2) SF = sF/Rmax, where Rmax is the maximal response amplitude measured at the plateau from a saturated rod response; (3) I1/2: flash energy required to elicit 50% of the Rmax determined by fitting a Naka-Rushton function to flash energy-amplitude data.

[4] = test system: individual rod photoreceptors; experiment: single-cell suction electrode recording from rod outer segments; type: cell-based, mouse (C57BL/6J); details: long incubation time during sample preparation for single-cell recording
Description: Because it is possible that reduction of Rmax by compound #1 is due to some effect(s) on the rod photoreceptor inner segment currents that are not directly related to phototransduction ([51], [52]), we conducted also single-cell suction electrode recordings from the ROS from samples that were incubated either in the control medium or in the medium containing enhancer compound #1. The results from single cell recordings were similar to those obtained using ex vivo ERG: Rmax and fractional sensitivity were decreased from 12 (±0.4) to 9 (±0.3) pA and from 3.0 (±0.5) to 1.8 (±0.1)% per photon μm^−2, respectively, by rhodopsin dimerization–enhancing hit #1 (Fig. 6, A–C). Like the ex vivo ERG recordings, light response kinetics was not affected by compound #1 in the single-cell recordings (Fig. 6D).
Suction electrode recordings from individual rod photoreceptors of dark-adapted C57BL/6J mice were conducted as described previously ([65]). Before recordings, isolated retinas were incubated in the control medium (Ames’ medium + 0.1% DMSO) or in the hit compound–containing medium (Ames’ medium +250 μM F2502-0030 (#1)) as described above for ex vivo ERG experiments. After incubation, one half of the retina was chopped with a razor blade and transferred into a chamber where it was perfused at 1 ml/min with Ames’ medium saturated with 95% O2/5% CO2 at 35 °C. Recordings were made from a single ROS, using borosilicate glass electrodes with ∼1.5-μm opening (resistance ∼2 MΩ at 35 °C). The pipette solution was Hepes buffered Ames’ medium composed of 0.88 g Ames’ powder (A1420, Sigma-Aldrich), 0.357 g Hepes (Sigma-Aldrich), and 58.44 mg NaCl in […] distilled and vacuum-filtered water. The pH was adjusted to 7.4 with NaOH. Light responses were recorded to flashes of light ranging from 8 to 700 photons μm^−2 at 500 nm. For analysis, data were low-pass filtered using an 8-pole Bessel filter with cut-off frequency at 30 Hz.

T2 sequence (P02699 whole entry): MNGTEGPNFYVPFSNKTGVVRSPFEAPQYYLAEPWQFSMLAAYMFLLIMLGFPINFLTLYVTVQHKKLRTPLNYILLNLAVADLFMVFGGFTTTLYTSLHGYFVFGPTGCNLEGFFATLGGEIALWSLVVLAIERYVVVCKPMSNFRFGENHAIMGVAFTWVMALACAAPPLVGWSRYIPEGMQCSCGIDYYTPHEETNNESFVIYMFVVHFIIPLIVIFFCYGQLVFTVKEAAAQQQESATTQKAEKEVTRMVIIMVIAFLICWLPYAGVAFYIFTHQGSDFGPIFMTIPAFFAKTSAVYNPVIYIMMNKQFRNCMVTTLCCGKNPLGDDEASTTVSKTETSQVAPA
T1 sequence (P08100 whole entry, the tested form may be a part): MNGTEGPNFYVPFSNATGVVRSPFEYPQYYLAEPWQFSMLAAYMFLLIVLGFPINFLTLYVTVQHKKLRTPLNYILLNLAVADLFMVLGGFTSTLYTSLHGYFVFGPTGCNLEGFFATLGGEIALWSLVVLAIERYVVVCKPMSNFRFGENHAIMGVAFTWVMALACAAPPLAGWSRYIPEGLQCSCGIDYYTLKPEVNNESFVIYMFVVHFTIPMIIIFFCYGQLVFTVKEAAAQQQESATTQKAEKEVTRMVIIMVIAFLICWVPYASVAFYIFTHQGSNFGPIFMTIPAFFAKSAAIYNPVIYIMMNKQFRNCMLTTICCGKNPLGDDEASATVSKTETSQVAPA

Structure (SMILES)	pEC50 [1]	pEC50 [2]	Meta II decay rate (slope of intrinsic fluorescence over 150 s) relative to DMSO control (bovine rhodopsin)	further results
O=C(CCCCn1c(=O)c2ccccc2n(Cc2ccccc2)c1=O)NCc1cccs1 [#4]	–	–	–	effect on dimerization in the β-gal complementation assay [1]: disrupted dimerization; effect on dimerization in the BRET assay [2]: enhanced dimerization
COc1ccc(S(=O)(=O)N(C(C)=O)c2cc3sc(=O)oc3c3ccccc23)cc1 [#5]	4.50	5.26	–	–
O=C(NCCc1ccsc1)c1cc(-c2ccco2)on1 [#2]	5.92	5.40	–	–
NC(=O)c1oc2ccccc2c1NC(=O)c1ccc(Oc2ccccc2)cc1 [#8]	4.78	4.69	statistically significant signal reduction	–
Cc1onc(-c2ccccc2Cl)c1C(=O)Nc1cccc2ccc(-n3ccnc3)nc12 [#7]	–	–	statistically significant signal reduction	effect on kinetics of rod light responses [3]: marked deceleration of light responses; Rmax ([3]; 5 h incubation, N = 4 retinas): 550 ± 40 μV; half-saturating I1/2 from best-fitting Michaelis–Menten equation to mean normalized amplitudes ([3]; Fig. 5F): 34 photons μm^−2; SF (fractional sensitivity, sF/rmax) ([3]; N = 4): 4.0 ± 0.3 ^a %/photons∙μm^−2; sF (absolute sensitivity) ([3]; N = 4): 18 ± 6 ^a μV/photons∙μm^−2; I1/2 ([3]; from individual retinas, N = 4): 35 ± 3 ^a photons∙μm^−2; tp ([3]; time-to-peak of dim flash (1 photon μm^−2), N = 4): 910 ± 100 ^a ms; damage to photoreceptor cells [4]: caused damage to the photoreceptor cells
O=C(Nc1ccc(CC(=O)N2CCC(O)CC2)cc1)c1cc(-c2ccco2)on1 [#3]	4.62	5.10	statistically significant signal reduction	light-induced increase in Trp265 intrinsic fluorescence vs DMSO-treated isorhodopsin (bovine rhodopsin): significantly quenched

The next lines start with results.

pEC50 [1]	pEC50 [2]	Structure (SMILES)	Meta II decay rate (slope of intrinsic fluorescence over 150 s) relative to DMSO control (bovine rhodopsin)	further results
4.52	4.87	CCOc1ccccc1-n1nnc(-c2nn3c(Cc4ccccc4)nnc3s2)c1C [#6]	statistically significant signal reduction	–
4.98	4.75	Cc1c(C(=O)N(Cc2cccnc2)c2nc3c(F)cccc3s2)cnn1-c1ccccc1 [#9]	statistically significant signal reduction	–

From PMC8665362, “Identification of small-molecule allosteric modulators that act as enhancers/disrupters of rhodopsin oligomerization” (The Journal of Biological Chemistry, 2021)
